For this assay, the target named is T1, histamine H3 receptors (Homo sapiens, UniProt Q9Y5N1).
T1 construct: expressed in transfected cells; host or cells: CHO K1 cells carrying pSwitch, transfected with pGeneH3, induced with mifepristone; clone 3H3; membrane preparation
Put plainly: Histamine H3 functional antagonist assay ([35S]-GTPγS SPA on membranes from H3 cells). The note with it: hydrochloride salts tested; H3 functional antagonist assay using membrane prepared from cultured H3 cells; averages of a number of experiments; read-out: functional pKi (fpKi) (converted). Type of assay: biochemical. From the text: A membrane preparation containing histamine H3 receptors may be prepared in accordance with the following procedures:
(i) Generation of Histamine H3 Cell Line
DNA encoding the human histamine H3 gene (Huvar, A. et al. (1999) Mol. Pharmacol. 55(6), 1101-1107) was cloned into a holding vector, pCDNA3.1 TOPO (InVitrogen) and its cDNA was isolated from this vector by restriction digestion of plasmid DNA with the enzymes BamHI and Not-1 and ligated into the inducible expression vector pGene (InVitrogen) digested with the same enzymes. The GeneSwitch™ system (a system where in transgene expression is switched off in the absence of an inducer and switched on in the presence of an inducer) was performed as described in U.S. Pat. Nos. 5,364,791; 5,874,534; and 5,935,934. Ligated DNA was transformed into competent DH5α E. coli host bacterial cells and plated onto Luria Broth (LB) agar containing Zeocin™ (an antibiotic which allows the selection of cells expressing the sh ble gene which is present on pGene and pSwitch) at 50 μg ml^−1. Colonies containing the re-ligated plasmid were identified by restriction analysis. DNA for transfection into mammalian cells was prepared from 250 ml cultures of the host bacterium containing the pGeneH3 plasmid and isolated using a DNA preparation kit (Qiagen Midi-Prep) as per manufacturers guidelines (Qiagen).
CHO K1 cells previously transfected with the pSwitch regulatory plasmid (InVitrogen) were seeded at 2×10e6 cells per T75 flask in Complete Medium, containing Hams F12 (GIBCOBRL, Life Technologies) medium supplemented with 10% v/v dialysed foetal bovine serum, L-glutamine, and hygromycin (100 μg ml^−1), 24 hours prior to use. Plasmid DNA was transfected into the cells using Lipofectamine plus according to the manufacturers guidelines (InVitrogen). 48 hours post transfection cells were placed into complete medium supplemented with 500 μg ml^−1 Zeocin™.
10-14 days post selection 10 nM Mifepristone (InVitrogen), was added to the culture medium to induce the expression of the receptor. 18 hours post induction cells were detached from the flask using ethylenediamine tetra-acetic acid (EDTA; 1:5000; InVitrogen), following several washes with phosphate buffered saline pH 7.4 and resuspended in Sorting Medium containing Minimum Essential Medium (MEM), without phenol red, and supplemented with Earles salts and 3% Foetal Clone II (Hyclone). Approximately 1×10e7 cells were examined for receptor expression by staining with a rabbit polyclonal antibody, 4a, raised against the N-terminal domain of the histamine H3 receptor, incubated on ice for 60 minutes, followed by two washes in sorting medium. Receptor bound antibody was detected by incubation of the cells for 60 minutes on ice with a goat anti rabbit antibody, conjugated with Alexa 488 fluorescence marker (Molecular Probes). Following two further washes with Sorting Medium, cells were filtered through a 50 μm Filcon™ (BD Biosciences) and then analysed on a FACS Vantage SE Flow Cytometer fitted with an Automatic Cell Deposition Unit. Control cells were non-induced cells treated in a similar manner. Positively stained cells were sorted as single cells into 96-well plates, containing Complete Medium containing 500 μg ml^−1 Zeocin™ and allowed to expand before reanalysis for receptor expression via antibody and ligand binding studies. One clone, 3H3, was selected for membrane preparation.
(ii) Membrane Preparation from Cultured Cells
All steps of the protocol are carried out at 4° C. and with pre-cooled reagents. The cell pellet is resuspended in 10 volumes of homogenisation buffer (50 mM N-2-hydroxyethylpiperazine-N′-2-ethanesulfonic acid (HEPES), 1 mM ethylenediamine tetra-acetic acid (EDTA), pH 7.4 with KOH, supplemented with 10e-6M leupeptin (acetyl-leucyl-leucyl-arginal; Sigma L2884), 25 μg/ml bacitracin (Sigma B0125), 1 mM phenylmethylsulfonyl fluoride (PMSF) and 2×10e-6M pepstain A (Sigma)). […]
In general terms: GTPγS resists hydrolysis and so accumulates on activated G proteins.

Experimental findings from US20080161289A1, “Fused Thiazole Derivatives Having Affinity for the Histamine H3 Receptor” (Glaxo Group Limited, priority 2005, published 2008) are described below.

Each structure is given as a SMILES string.

T1 sequence (Q9Y5N1 whole entry): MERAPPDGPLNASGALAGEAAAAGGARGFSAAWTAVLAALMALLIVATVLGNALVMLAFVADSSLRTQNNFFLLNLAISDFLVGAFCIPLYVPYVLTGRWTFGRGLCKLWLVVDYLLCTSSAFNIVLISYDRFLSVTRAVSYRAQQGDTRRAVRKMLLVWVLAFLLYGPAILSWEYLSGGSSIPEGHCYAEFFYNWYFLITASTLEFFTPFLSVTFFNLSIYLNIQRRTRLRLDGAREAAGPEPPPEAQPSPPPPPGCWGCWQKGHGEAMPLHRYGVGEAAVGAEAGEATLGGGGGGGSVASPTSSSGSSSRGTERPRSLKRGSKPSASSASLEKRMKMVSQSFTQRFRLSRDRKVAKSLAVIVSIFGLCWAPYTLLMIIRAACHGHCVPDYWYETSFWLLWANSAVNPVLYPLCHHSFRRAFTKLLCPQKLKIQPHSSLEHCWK

For the compound `N#Cc1ccc(N2CCC(c3nc4c(s3)CCN(C3CCC3)CC4)C2)cn1` (racemic) [Example E35, (±)-5-[3-(6-Cyclobutyl-5,6,7,8-tetrahydro-4H-[1,3]thiazolo[4,5-d]azepin-2-yl)-1-pyrrolidinyl]-2-pyridinecarbonitrile], the Ki is less than 1.26 nM.

As to `Cc1ccc(N2CCC(c3nc4c(s3)CCN(C3CCC3)CC4)C2)cn1` (racemic) [Example E38, (±)-6-Cyclobutyl-2-[1-(6-methyl-3-pyridinyl)-3-pyrrolidinyl]-5,6,7,8-tetrahydro-4H-[1,3]thiazolo[4,5-d]azepine], the Ki was less than 1.26 nM.

As to `Cc1cccc(N2CCC(c3nc4c(s3)CCN(C3CCC3)CC4)C2)n1` (racemic) [Example E114, (±)-6-Cyclobutyl-2-[1-(6-methyl-2-pyridinyl)-3-pyrrolidinyl]-5,6,7,8-tetrahydro-4H-[1,3]thiazolo[4,5-d]azepine], the Ki was less than 0.316 nM.

For the compound `N#Cc1ccc(N2CCC(c3nc4c(s3)CCN(C3CCC3)CC4)C2)cn1` (single isomer, unassigned; (+)) [Example E37, (+)-5-[3-(6-Cyclobutyl-5,6,7,8-tetrahydro-4H-[1,3]thiazolo[4,5-d]azepin-2-yl)-1-pyrrolidinyl]-2-pyridinecarbonitrile], the Ki is less than 1.26 nM.

With `N#Cc1ccc(N2CCC(c3nc4c(s3)CCN(C3CCC3)CC4)C2)cn1` (single isomer, unassigned; (-)) [Example E36, (−)-5-[3-(6-Cyclobutyl-5,6,7,8-tetrahydro-4H-[1,3]thiazolo[4,5-d]azepin-2-yl)-1-pyrrolidinyl]-2-pyridinecarbonitrile], the Ki is less than 0.316 nM.

In the case of `FC(F)(F)c1ccc(-c2nc3c(s2)CCN(C2CCC2)CC3)cc1` [Example E1, 6-Cyclobutyl-2-[4-(trifluoromethyl)phenyl]-5,6,7,8-tetrahydro-4H-[1,3]thiazolo[4,5-d]azepine], the Ki was less than 31.6 nM.

For the compound `O=C1CCCN1c1ccc(-c2nc3c(s2)CCN(C2CCC2)CC3)cc1` [Example E3, 1-[4-(6-cyclobutyl-5,6,7,8-tetrahydro-4H-[1,3]thiazolo[4,5-d]azepin-2-yl)phenyl]-2-pyrrolidinone], the Ki is less than 0.316 nM.

With `c1cc(-c2nc3c(s2)CCN(C2CCC2)CC3)ccc1-c1csnn1` [Example E5, 6-Cyclobutyl-2-[4-(1,2,3-thiadiazol-4-yl)phenyl]-5,6,7,8-tetrahydro-4H-[1,3]thiazolo[4,5-d]azepine], the Ki was less than 1.26 nM.

On to `Cc1ccc(C(=O)N2CCC(c3nc4c(s3)CCN(C3CCC3)CC4)CC2)cn1` [Example E8, 6-Cyclobutyl-2-{1-[(6-methyl-3-pyridinyl)carbonyl]-4-piperidinyl}-5,6,7,8-tetrahydro-4H-[1,3]thiazolo[4,5-d]azepine], for which the Ki was less than 1.26 nM.

Take `O=C(c1ccc(C(F)(F)F)nc1)N1CCC(c2nc3c(s2)CCN(C2CCC2)CC3)CC1` [Example E10, 6-Cyclobutyl-2-(1-{[6-(trifluoromethyl)-3-pyridinyl]carbonyl}-4-piperidinyl)-5,6,7,8-tetrahydro-4H-[1,3]thiazolo[4,5-d]azepine]: the Ki was less than 31.6 nM.

As to `Cc1cccc(C(=O)N2CCC(c3nc4c(s3)CCN(C3CCC3)CC4)CC2)n1` [Example E11, 6-Cyclobutyl-2-{1-[(6-methyl-2-pyridinyl)carbonyl]-4-piperidinyl}-5,6,7,8-tetrahydro-4H-[1,3]thiazolo[4,5-d]azepine], the Ki is less than 0.316 nM.

`Cc1cnc(C(=O)N2CCC(c3nc4c(s3)CCN(C3CCC3)CC4)CC2)cn1` [Example E12, 6-Cyclobutyl-2-{1-[(5-methyl-2-pyrazinyl)carbonyl]-4-piperidinyl}-5,6,7,8-tetrahydro-4H-[1,3]thiazolo[4,5-d]azepine]: the Ki was less than 1.26 nM.

As to `Cc1cncc(C(=O)N2CCC(c3nc4c(s3)CCN(C3CCC3)CC4)CC2)c1` [Example E13, 6-Cyclobutyl-2-{1-[(5-methyl-3-pyridinyl)carbonyl]-4-piperidinyl}-5,6,7,8-tetrahydro-4H-[1,3]thiazolo[4,5-d]azepine], the Ki was less than 0.316 nM.
